Structures are written as SMILES. Active and inactive are the calls of the source. The calls are words filed in the database; no cut-off is given here. Bounds are passed on as bounds.

The nature of series [1]: Cytotoxicity against mock-infected human MT4 cells after 5 days by MTT assay. It counts as cell-based. For orientation: Tetrazolium assays rely on reduction of a dye to a coloured formazan, in cell work by metabolically active cells.
Series [2] in a line: Selectivity index, ratio of CC50 for mock-infected human MT4 cells to EC50 for HIV1 3B infected in human MT4 cells. To be noted: mock-infected (CC50) and HIV1 3B infected (EC50). It counts as toxicity, cell-based.
In series [3] the test system is Human immunodeficiency virus 1. Nature of the series: Antiviral activity against HIV1 harboring K103N/Y181C double mutant infected in human MT4 cells assessed as protection of cells from virus-induced cytopathic after 5 days by MTT assay. Particulars: Human immunodeficiency virus 1, MT4, 120 h. It counts as functional, organism-based. (Damage to the host cells serves as the signal in cytopathic effect assays.)

The subject of series [4] is Human immunodeficiency virus 1. Nature of the series: Antiviral activity against wild-type HIV1 3B infected in human MT4 cells assessed as protection of cells from virus-induced cytopathic after 5 days by MTT assay. It counts as functional, organism-based. To be noted: Human immunodeficiency virus 1, 3B, MT4, 120 h.
Series [5] has as its target Human immunodeficiency virus type 1 reverse transcriptase (Human immunodeficiency virus 1) (UniProt Q72547). The series is described as follows: Inhibition of wild-type HIV1 Reverse transcriptase p66/p51 assessed as fluorescence signal by time-of-addition assay.
Series [6] addresses Human immunodeficiency virus type 1 reverse transcriptase (Human immunodeficiency virus 1, UniProt Q72547). The series is described as follows: Inhibition of wild-type HIV1 Reverse transcriptase p66/p51 assessed as relative fluorescence signal after 40 mins.
In series [7] the target is Human immunodeficiency virus type 1 integrase (Human immunodeficiency virus 1, UniProt Q7ZJM1). Nature of the series: Inhibition of HIV1 integrase.
Human immunodeficiency virus type 1 integrase, sequence (Q7ZJM1 whole entry): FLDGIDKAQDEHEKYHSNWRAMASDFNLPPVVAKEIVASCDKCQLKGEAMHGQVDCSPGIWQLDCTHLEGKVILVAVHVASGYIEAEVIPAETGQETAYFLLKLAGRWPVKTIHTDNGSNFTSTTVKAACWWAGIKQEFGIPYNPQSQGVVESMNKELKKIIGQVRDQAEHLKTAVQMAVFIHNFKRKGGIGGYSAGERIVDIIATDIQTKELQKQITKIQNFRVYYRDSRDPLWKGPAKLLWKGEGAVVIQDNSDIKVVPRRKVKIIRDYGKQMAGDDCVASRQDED

`CCCCn1cc(C(=O)O)c(=O)c2ccc(Nc3ccnc(Nc4ccc(C#N)cc4)n3)cc21`: in series [1], the CC50 at 120 h was found to be 13.6 µM. The selectivity ratio in series [2] is less than 1. Besides, the EC50 in series [3] and in series [4] was more than 13.6 µM throughout.
`Cc1cc(C#N)cc(C)c1Oc1nc(Nc2ccc(C#N)cc2)nc(N)c1Br` [ETRAVIRINE] gave a CC50 at 120 h in series [1] of 14.2 µM. In addition, the EC50 in series [3] was 0.014 µM; in series [4], 0.0019 µM.
`O=C1Nc2ccc(Cl)cc2[C@@](C#CC2CC2)(C(F)(F)F)O1` [EFAVIRENZ] had a CC50 at 120 h in series [1] of more than 6.5 µM. In addition, in series [3], the EC50 was found to be 0.14 µM.
As to `COc1cc2c(cc1Cc1cccc(Cl)c1F)c(=O)c(C(=O)O)cn2[C@H](CO)C(C)C`, in series [1], it took 4.6 µM to reach half-maximal cytotoxicity (CC50 at 120 h). Also, the EC50 in series [3] came to 0.0022 µM; in series [4], 0.0031 µM.
For `N#Cc1ccc(Nc2nccc(Oc3ccc4c(=O)c(C(=O)O)cn(C5CCCCC5)c4c3)n2)cc1`, the CC50 at 120 h in series [1] came out at 3.22 µM. Further, in series [2], the selectivity ratio is less than 1. Besides, the EC50 in series [3] and in series [4] was more than 3.22 µM in each case.
`CC(C)Cn1cc(C(=O)O)c(=O)c2ccc(Oc3ccnc(Nc4ccc(C#N)cc4)n3)cc21` gave a CC50 at 120 h in series [1] of more than 274 µM. Besides, the inhibition entry in series [5] is “Active”. For the same compound, the selectivity ratio in series [2] was more than 237. The IC50 in series [6] turned out to be 14 µM. The EC50 is more than 274 µM in series [3] and 1.16 µM in series [4].
Take `CCn1cc(C(=O)O)c(=O)c2ccc(Nc3ccnc(Nc4ccc(C#N)cc4)n3)cc21`: the CC50 at 120 h in series [1] came out at 123 µM. For the same compound, the selectivity ratio in series [2] is less than 1. In addition, the IC50 in series [6] is 7.07 µM. In addition, the EC50 in series [3] and in series [4] was more than 123 µM throughout.
In series [1], `CCCn1cc(C(=O)O)c(=O)c2ccc(Oc3ccnc(Nc4ccc(C#N)cc4)n3)cc21` displayed a CC50 at 120 h of 245 µM. In addition, the selectivity ratio in series [2] was not above 569. Besides, the IC50 in series [6] worked out at 9.12 µM. The EC50 is more than 245 µM in series [3] and not below 0.43 µM in series [4].
In series [1], `N#Cc1ccc(Nc2nccc(Oc3ccc4c(=O)c(C(=O)O)cn(C5CC5)c4c3)n2)cc1` registered a CC50 at 120 h not below 221 µM. For the same compound, the selectivity ratio in series [2] is not above 1. Moreover, the EC50 in series [3] and in series [4] was more than 221 µM throughout.
As for `N#Cc1ccc(Nc2nccc(Oc3ccc4c(=O)c(C(=O)O)cn(C5CCCC5)c4c3)n2)cc1`, in series [1], half-maximal cytotoxicity (CC50 at 120 h) was put at 4.96 µM. Moreover, the selectivity ratio in series [2] was determined as 5. Besides, the IC50 in series [6] came to 6.08 µM. In addition, the EC50 in series [3] is more than 4.96 µM; in series [4], 0.98 µM.
In turn, `Cc1ccnc2c1NC(=O)c1cccnc1N2C1CC1` [NEVIRAPINE] registered a 50% cytotoxic concentration (CC50) at 120 h in series [1] of more than 15 µM. Moreover, the EC50 was not below 11 µM in series [3] and 0.244 µM in series [4].
Turning to `CCn1cc(C(=O)O)c(=O)c2ccc(Oc3ccnc(Nc4ccc(C#N)cc4)n3)cc21`, in series [1], half-maximal cytotoxicity (CC50 at 120 h) was put at 246 µM. The inhibition result in series [5] was “Active”. The selectivity ratio in series [2] was determined as 880. In addition, the IC50 in series [6] stood at 7.15 µM. In addition, the values for the EC50 in series [3] and in series [4] were more than 246 µM and 0.28 µM, respectively.
Take `CCCCn1cc(C(=O)O)c(=O)c2ccc(Oc3ccnc(Nc4ccc(C#N)cc4)n3)cc21`: the CC50 at 120 h in series [1] is not below 199 µM. Also, the inhibition entry in series [5] was “Active”. In addition, the IC50 in series [7] was found to be 32.5 µM; in series [6], 3.49 µM. In addition, the selectivity ratio in series [2] is not below 604. For the same compound, the EC50 in series [3] is more than 199 µM; in series [4], 0.33 µM.
Compound `N#Cc1ccc(Nc2nccc(Nc3ccc4c(=O)c(C(=O)O)cn(C5CCCCC5)c4c3)n2)cc1` returned a CC50 at 120 h in series [1] of 2.18 µM. In addition, the selectivity ratio in series [2] is less than 1. Moreover, the EC50 in series [3] and in series [4] was more than 2.18 µM throughout.
In series [1], `CCC(C)n1cc(C(=O)O)c(=O)c2ccc(Oc3ccnc(Nc4ccc(C#N)cc4)n3)cc21` (stereo unspecified) registered a CC50 at 120 h of more than 274 µM. For the same compound, the selectivity ratio in series [2] came out at 1. The EC50 in series [3] and in series [4] was more than 274 µM in each case.
Consider `Cc1cn([C@H]2C[C@H](N=[N+]=[N-])[C@@H](CO)O2)c(=O)[nH]c1=O` [ZIDOVUDINE], for which, in series [1], the CC50 at 120 h is more than 94 µM. In addition, the selectivity ratio in series [2] turned out to be 16800. The EC50 was 0.0052 µM in series [3] and 0.0056 µM in series [4].
In series [1], `CCCn1cc(C(=O)O)c(=O)c2ccc(Nc3ccnc(Nc4ccc(C#N)cc4)n3)cc21` came in with a CC50 at 120 h of 189 µM. Also, the selectivity ratio in series [2] is less than 1. Further, the EC50 in series [3] and in series [4] was more than 189 µM in each case.
In turn, `CC(C)n1cc(C(=O)O)c(=O)c2ccc(Nc3ccnc(Nc4ccc(C#N)cc4)n3)cc21` registered a CC50 at 120 h in series [1] of 10.9 µM. Also, in series [2], the selectivity ratio is less than 1. Moreover, the EC50 in series [3] and in series [4] was more than 10.9 µM in each case.
For `CC(C)n1cc(C(=O)O)c(=O)c2ccc(Oc3ccnc(Nc4ccc(C#N)cc4)n3)cc21`, the CC50 at 120 h in series [1] was more than 283 µM. Moreover, the selectivity ratio in series [2] is 1. Further, the EC50 in series [3] and in series [4] was more than 283 µM each time.

As usually defined, the CC50 is the concentration giving 50% cytotoxicity. Lower therefore signals greater toxicity to the cells. Usually EC50 stands for the concentration needed to bring the measured effect to its halfway point. A word on the IC50: it is the concentration at which inhibition is half-maximal.

These data come from ChEMBL document CHEMBL3585306, “Anti-HIV diarylpyrimidine-quinolone hybrids and their mode of action” (Bioorg Med Chem, 2015).
